# From article PMC12040169 (PLOS Biology, 2025)
# Assay: in vitro
# Conditions: human, hela cells, % viability
row,SMILES,"viability at 28.5 h, 10 µM"
1,Cc1nc2cccnc2n1C1CCN(C(=O)C(C)(C)C)CC1 [CBK282426],89.2%
2,CS(=O)(=O)N1CCc2c([nH]c3ccccc23)C12CCN(Cc1ccccc1)C2 (stereo not shown) [CBK059460],102%
3,CCOC(=O)N1CCC(NC(=O)c2ccc(Nc3cncc(-c4ccc(O)cc4)n3)cc2)CC1 [CBK115694],107%
4,O=C(CN1CCNCC1)Nc1ccc(Oc2ccccc2)cc1 [CBK267191C],102%
5,O=C(O)C(Cc1ccccc1)N1C(=O)/C(=C/c2cccc([N+](=O)[O-])c2)SC1=S (stereo not shown) [CBK263078],98.4%
6,CC1CCCN(C(=O)CN2C3CCC2CC(O)(c2ccco2)C3)C1 (stereo not shown) [CBK284095],98.8%
7,CC(=O)N1CCc2cc(NC(=O)c3cc4cc(C)ccc4o3)ccc21 [CBK281470],86.2%
8,Cc1cc(C(=O)N(Cc2ccccc2)c2ccccc2)no1 [CBK268131],94.2%
9,Cc1nc2c(c(=O)[nH]1)CC[C@@H]1CN(C(=O)c3cc(F)cc(F)c3)C[C@H]21 [CBK284418],101%
10,CCN(CCn1cccn1)c1nc2nonc2nc1N(C)C [CBK306630],88.9%
11,Cc1ccc(C(=O)NCCN2CCOCC2)c(N2CCOCC2)n1 [CBK106201],87%
12,COc1cc(F)cc(OC2CCNCC2)c1NC(=O)Cc1c[nH]c2ccccc12 [CBK050246T],91%
13,COCC1(O)CCN(Cc2sccc2Cl)CC1 [CBK304252],98.7%
14,CN1C(C(=O)O)=CC(c2ccc(F)cc2)=NS1(=O)=O [CBK287016],97.7%
15,COc1cc(S(=O)(=O)N2CCCN(S(=O)(=O)c3cc(OC)c(Cl)cc3OC)CC2)c(OC)cc1Cl [CBK266489],99.4%
16,Fc1ccc(CN2C3CCCC2CC(NC(=S)NC2CCCCC2)C3)cc1 (stereo not shown) [CBK121172],90%
17,COc1ccccc1Nc1nc(N)nc(CSCCO)n1 [CBK266679],91.4%
18,COc1ccc2nc(NC(=O)c3ccc4c(c3)OCCO4)sc2c1 [CBK287572],103%
19,CCc1nc2ccc(C(=O)N3CCN(c4ccccc4)CC3)cn2c1N(C)C(=O)Nc1ccccc1OC [CBK145886],96.2%
20,COc1ccc(CN2CCOC(C(=O)O)C2)cc1Cn1cncn1 (stereo not shown) [CBK306919],120%
21,O=C(Nc1ccccc1N1CCN(C(=O)c2ccc(Cl)cc2)CC1)c1ccc(-c2cccc([N+](=O)[O-])c2)o1 [CBK266398],93.3%
22,CC(=O)C1=C(O)C(=O)N(CCCO)C1c1cccc([N+](=O)[O-])c1 (stereo not shown) [CBK263753],92.6%

row,SMILES,"viability at 28.5 h, 10 µM"
1,CCNC(=O)c1cc2c(=O)n3ccccc3nc2n(C)c1=N [CBK287762],90.7%
2,O=S(=O)(c1ccc(Cl)s1)N1CCN(Cc2ccc3c(c2)OCO3)CC1 [CBK270324],89.5%
3,Cc1nn(CC(=O)N2CCCC(C)C2)c(=O)c2cc3ccsc3n12 (stereo not shown) [CBK284041],81.7%
4,COc1ccc(C(=O)N2CCCN(Cc3ccc(C#N)cc3)CC2)cc1 [CBK305374],94.7%
5,Cc1n[nH]c(C)c1CC(=O)NC(Cc1cccs1)c1nccs1 (stereo not shown) [CBK285093],92.1%
6,O=C(c1ccco1)N1CCN(c2cncc(-c3ccc(F)cc3F)n2)CC1 [CBK065818],93.7%
7,COc1cncc(-c2ccc(N3CCN(CCN(C)C)CC3)nc2)c1 [CBK037720],88.9%
8,O=C(c1ccc(OC(F)(F)F)cc1)N1CCN(c2nnnn2-c2ccccc2)CC1 [CBK296622],93.5%
9,Cc1nc2c(c(=O)[nH]1)CCN(Cc1[nH]c3ccccc3c1C)C2 [CBK283995],93%
10,CN(C)C(=O)c1ccc(-c2ccc(OC3CCN(C(=O)CCC(=O)N4CCCC4)CC3)nc2)cc1 [CBK155051],108%
11,O=C(Cn1c(-c2cccs2)cc2cccnc21)NCc1cccnc1 [CBK282457],105%
12,COCCC(=O)Nc1cccc(N2CCNCC2)c1 [CBK004769T],89.9%
13,O=C(c1cc2c(F)cccc2[nH]1)N1CCCCC1CCN1CCCC1 (stereo not shown) [CBK281612],85.7%
14,CS(=O)(=O)Nc1ncc(-c2ccco2)cc1C(=O)NCc1ccc(F)cc1 [CBK076479],112%
15,COc1ccc(NC(=O)CSc2nc(N)n[nH]2)cc1Cl [CBK268065],108%
16,COc1cc(CNc2cc(-c3ccco3)ncn2)cc(OC)c1OC [CBK091181],106%
17,CN1CCC(N(C)C(=O)NCc2c(Cl)cccc2Cl)C1 (stereo not shown) [CBK156014],99%
18,CN(C)CC(=O)N1CN(C(=O)c2cccc(Br)c2)C(C)(C)C1 [CBK092206C],97.4%
19,O=C(O)CNC(=O)CCn1c(-c2ccccc2)cc2ccccc21 [CBK286780],99.2%
20,O=C(Cn1c(C2CCNCC2)cc2cccnc21)NC1CCCC1 [CBK285002],104%
21,Nc1ncnc(NCCc2ccccc2)n1 [CBK262701],85%
22,CCc1ccc(-c2ccc(C(=O)OC)cn2)cc1 [CBK149232],95.2%

row,SMILES,"viability at 28.5 h, 10 µM"
1,Cn1cnnc1SCC(=O)Nc1c(F)cccc1F [CBK295150],88.2%
2,CCC(CN(C(=O)C(N)CCCCN)c1ccc2c(c1)OCO2)c1ccccc1 (stereo not shown) [CBK001083T],96.4%
3,COc1cc2c(cc1NC(=O)c1ccc(C)c([N+](=O)[O-])c1)oc1ccccc12 [CBK263411],91.9%
4,CCn1nc(C)cc1C(=O)N1Cc2cnn(Cc3ccc(F)cc3)c2C1 [CBK306574],96.7%
5,CCOc1nc(=O)c(C)cn1C1CC(O)C(CO)O1 (stereo not shown) [CBK201334],96.5%
6,COc1ccccc1N1CCN(C[C@H]2C[N@@]3CC[C@H]2C[C@@H]3CNS(C)(=O)=O)CC1 [CBK288770],87.5%
7,N#Cc1cccnc1N1CCC(NC(=O)Cn2cccnc2=O)CC1 [CBK307275],95.7%
8,Clc1cccc(-c2cncc(NCc3ccc4c(c3)OCO4)n2)c1 [CBK065323],94.8%
9,Cc1cc(F)ccc1C(=O)NCC1CCN(c2cnn(C)c(=O)c2)C1 (stereo not shown) [CBK307097],112%
10,Cc1ccc(Nc2cc(-c3cccc4oc5ccccc5c34)ncn2)cc1NS(C)(=O)=O [CBK091150],93.6%
11,O=S(=O)(Nc1ccc2nsnc2c1)c1cccc(C(F)(F)F)c1 [CBK062221],106%
12,O=C1NC/C=C/CC2(CCN(c3ncccn3)CC2)C(=O)NCCOc2ccccc21 [CBK292081],90.3%
13,CC1CCN(CC(C)(C)n2cncc2-c2cnn(C)c2)CC1 [CBK281738],107%
14,CS(=O)(=O)c1ccc(-c2ccnc3nc(N)ccc23)cc1 [CBK067648],117%
15,CN1C(=S)SC(C)(N(O)C(=O)NC2CCCCC2)C1(C)C (stereo not shown) [CBK008916],110%
16,Nc1cc2cccnc2nc1-c1cccnc1 [CBK067602],84.8%
17,O=C(c1cccnc1)N1CCN(Cc2cccc([N+](=O)[O-])c2)CC1 [CBK263020],114%
18,CN1CCN(C(=O)CSc2nnc(COc3ccccc3)o2)CC1 [CBK268970],85.4%
19,O=C(NC1CCCc2nc(N3CCC(CO)CC3)ncc21)C1CCCC1 (stereo not shown) [CBK307415],87.4%
20,COc1ccc2cc(CNc3ccc(CCc4nc5ccccc5n4C)cc3)c(=O)[nH]c2c1 [CBK286159],103%
21,COc1ccc2nc(Nc3nc4c(s3)C(=O)CC(C)(C)C4)sc2c1 [CBK287481],90.5%
22,COc1cccc2sc(Nc3nc4c(s3)C(=O)CC(C)(C)C4)nc12 [CBK287467],86%

row,SMILES,"viability at 28.5 h, 10 µM"
1,N#Cc1cccc(CN2CCCC3(CCN(C(=O)Cc4c[nH]c5ccccc45)C3)C2)c1 (stereo not shown) [CBK132032],103%
2,COc1ccc(C(=O)COC(=O)c2cc(-c3ccc(Cl)cc3)nc3ccc(C)cc23)cc1[N+](=O)[O-] [CBK264072],90.6%
3,Cc1ccc(SCCNC(=O)C(C)Sc2ccc(Cl)cc2)cc1 (stereo not shown) [CBK264104],93.5%
4,Cn1c(=O)n(CC(=O)N2CCCc3ccccc32)c2cccnc21 [CBK283790],86.7%
5,Cc1ncn(Cc2nc(-c3ccsc3)no2)c(=O)c1C [CBK304158],113%
6,CC(C)(C)c1cc(Br)ccc1OCC(=O)Nc1nc[nH]n1 [CBK263379],96.1%
7,Nc1ncc(-c2cccc(/C=C/C(=O)O)c2)nc1NCCCO [CBK063887],103%
8,COc1ccc(-c2cc(C3CCN(C(=O)C4CC4)C3)[nH]n2)cc1 (stereo not shown) [CBK285263],91.5%
9,O=C(c1cccnc1)C1CCN(C(=O)Cc2ccc(F)cc2)CC1 [CBK283515],90.5%
10,Cc1ccc(NS(=O)(=O)c2cc(C(=O)N3CCN(C)CC3)ccc2C)cc1 [CBK268577],92.5%
11,Cc1cccc(CC(=O)N2CCCC2c2ccnc3cc(C)nn23)c1 (stereo not shown) [CBK283472],105%
12,Cc1ccc(N)c(C(=O)CCC(=O)O)c1 [CBK017815C],92.1%
13,O=C(COc1ccccc1)Nc1cccc(N2CCNCC2)c1 [CBK028271T],100%
14,CC(NC(=O)c1c(Cl)c(Cl)c(Cl)c(Cl)c1C(=O)O)c1cccs1 (stereo not shown) [CBK264722],107%
15,CN1CCC2(CC1)NCCc1c2ccn1S(=O)(=O)c1ccc(I)cc1 [CBK061945C],111%
16,Oc1ccc(/C=C/c2nc(-c3ccccc3O)n(-c3ccccc3)n2)cc1 [CBK265289],74.4%
17,CCCc1n[nH]c(-c2cc(C(F)(F)F)ccc2F)c1C(=O)OCC [CBK107231],94.6%
18,O=C(NCCc1cccs1)Nc1ccccc1OC(F)(F)F [CBK044873],98%
19,COc1ccc(Cc2nnc(Nc3ccc(OC)cc3)[nH]c2=O)cc1 [CBK287385],92.9%
20,O=C(COc1ccc(I)cc1)N/N=C/c1cccc([N+](=O)[O-])c1 [CBK262211],95.2%

# Same assay, conditions: human, hela cells, % viability, bulk resorufin, single well
row,SMILES,"viability at 28.5 h, 10 µM"
1,Cc1cc(C)cc(N2C(=O)NC(=O)/C(=C\c3ccccc3Br)C2=O)c1 [CBK263588],100%
2,O=C(O)Cn1cc(C(=O)c2ccccc2F)c2ccccc21 [CBK287100],92.7%
